As usually defined, the EC50 is the concentration giving half of the maximal effect.

The test has as its target T1, Ceramide glucosyltransferase (Homo sapiens, UniProt Q16739).
T1 sequence (Q16739 whole entry): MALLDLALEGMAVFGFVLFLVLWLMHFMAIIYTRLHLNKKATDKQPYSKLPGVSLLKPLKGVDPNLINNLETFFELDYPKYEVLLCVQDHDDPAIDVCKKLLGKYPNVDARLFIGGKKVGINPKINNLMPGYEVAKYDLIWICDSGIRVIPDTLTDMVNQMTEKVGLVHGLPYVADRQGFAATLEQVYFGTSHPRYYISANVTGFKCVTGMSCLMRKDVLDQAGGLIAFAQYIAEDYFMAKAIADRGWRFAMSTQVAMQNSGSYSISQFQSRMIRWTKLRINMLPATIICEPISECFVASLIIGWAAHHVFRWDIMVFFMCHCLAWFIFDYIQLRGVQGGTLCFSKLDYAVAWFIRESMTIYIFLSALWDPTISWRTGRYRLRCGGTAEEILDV
The test can be described thus: UDP-Glo Glucosylceramide Synthase Biochemical Assay. The protocol: Using Promega s UDP-Glo Glycosyltransferase assay kit (Promega Corporation, Madison, WI, USA (Promega)), GCS activity was indirectly measured by detecting the amount of UDP produced. An aliquot of GCS enzyme (1.5 µg crude golgi preparation, total protein) and titrated test compound were aliquoted to each well and incubated for 30 minutes at room temperature. […] An equivalent volume of substrate mixture was then added to each well. Following a 20 h incubation at room temperature to allow for GCS turnover of substrate, an equal volume of UDP detection reagent (Promega) was added to each well and incubated for an additional 75 minutes at room temperature to simultaneously convert the accumulated UDP product into ATP and generate light in a luciferase reaction. The generated light was detected using a luminometer. […] luminescence values (RLUs) were normalized to mean min and max effects, as determined on each plate. […] See Levenberg, K., A Method for the Solution of Certain Problems in Least Squares , Quart. Appl.
The compound `CC(C)(O)[C@@H](C1CC1)N1Cc2cccc(-c3ccc(-c4nnco4)cc3)c2C1=O` [WO2022115301, Example 5] returned a concentration giving a half-maximal response (EC50) of 52 nM. Compound `Cc1n[nH]c2cc(F)c(-c3cccc4c3C(=O)N([C@H](C3CC3)C(C)(C)O)C4)cc12` [WO2022115301, Example 11] showed a half-maximal effective concentration (EC50) of 4.9 nM. Consider `Cn1cc(-c2ccc(-c3cccc4c3C(=O)N([C@H](C3CC3)C(C)(C)O)C4)cc2)cn1` [WO2022115301, Example 15], for which the EC50 is 6.4 nM. `Cn1ncc2cc(-c3cccc4c3C(=O)N([C@H](C3CC3)C(C)(C)O)C4)ccc21` [WO2022115301, Example 12] returned an EC50 of 13 nM. Next, `COc1cc(C#N)cc(-c2cccc3c2C(=O)N([C@H](C2CC2)C(C)(C)O)C3)c1` [WO2022115301, Example 8]: 7.5 nM. The same measure for `COc1cc(Cl)cc(-c2cccc3c2C(=O)N([C@H](C2CC2)C(C)(C)O)C3)c1` [WO2022115301, Example 10]: 2.8 nM; for `CC(C)(O)[C@@H](C1CC1)N1Cc2cccc(-c3cccc4c3OC(F)(F)O4)c2C1=O` [WO2022115301, Example 16]: 39 nM; for `Cc1nnc(-c2ccc(-c3cccc4c3C(=O)N([C@H](C3CC3)C(C)(C)O)C4)cc2F)o1` [WO2022115301, Example 9]: 24 nM. Regarding `CN1Cc2cc(-c3cc(F)cc4c3C(=O)N([C@H](C3CC3)C(C)(C)O)C4)ccc2C1=O` [WO2022115301, Example 25], the EC50 was 9.2 nM. Against the preceding compound, the EC50 is about 2.6-fold lower.

Turning to `CC(C)(O)[C@@H](C1CC1)N1Cc2cccc(-c3ccc(-n4nccn4)cc3)c2C1=O` [WO2022115301, Example 17], the EC50 turned out to be 580 nM. The same measure for `Cn1cc(-c2ccc(-c3cc(F)cc4c3C(=O)N([C@H](C3CC3)C(C)(C)O)C4)cc2)cn1` [WO2022115301, Example 24]: 0.93 nM; for `CC(C)(O)[C@@H](C1CC1)N1Cc2cccc(-c3cccc(OCC(F)(F)F)c3)c2C1=O` [WO2022115301, Example 14]: 48 nM; for `CC(C)(O)[C@@H](C1CC1)N1Cc2cccc(-c3ccccc3OCC(F)(F)F)c2C1=O` [WO2022115301, Example 7]: 3.6 nM.

In the case of `Cn1c(=O)n(C)c2cc(-c3cccc4c3C(=O)N([C@H](C3CC3)C(C)(C)O)C4)ccc21` [WO2022115301, Example 6], the EC50 worked out at 4.5 nM.

For the origin of these results see BindingDB's records for patent WO2022115301 (MERCK SHARP & DOHME LLC, 2022).
